Active and inactive are the calls of the source. The rule behind the calls is not given here.
Each molecule was assayed on Glycine max (assay: Inhibition of soybean PDF using PDF/FDH coupled spectrophotometric assay).

Activity	Structure (SMILES)
inactive	Cc1ccc(-c2nn(-c3ccccc3)cc2/C=C2\SC(=S)N(CC(=O)O)C2=O)cc1
inactive	COC(=O)CCCCCN1C(=O)/C(=C/c2cc(C)n(-c3ccccc3)c2C)SC1=S
inactive	O=C(O)CCN1C(=O)/C(=C/c2cn(-c3ccccc3)nc2-c2ccccc2)SC1=S

These molecules were tested against T1, Peptide deformylase (Escherichia coli, UniProt Q9JN24) (assay: Inhibition of Escherichia coli PDF).
T1 sequence (Q9JN24 whole entry): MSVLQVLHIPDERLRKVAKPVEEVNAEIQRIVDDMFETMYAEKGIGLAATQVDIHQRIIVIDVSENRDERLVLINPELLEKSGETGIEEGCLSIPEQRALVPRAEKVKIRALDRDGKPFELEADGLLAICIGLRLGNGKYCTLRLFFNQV

Structure (SMILES)	IC50 [µM]
O=C(O)CCCCCN1C(=O)/C(=C/c2c[nH]c3ccccc23)SC1=S	> 30
CCOc1cc(/C=C2\SC(=S)N(CCCCCC(=O)O)C2=O)ccc1O	> 30
O=C(O)CCCCCN1C(=O)/C(=C/c2ccc(-c3ccc(Cl)c(Cl)c3)o2)SC1=S	> 30
CC(/C=C1\SC(=S)N(CCCCCC(=O)O)C1=O)=C\c1ccccc1	> 30
Cc1nn(-c2ccccc2)c(Cl)c1/C=C1\SC(=S)N(CCCCCC(=O)O)C1=O	> 30
O=C(O)CCN1C(=O)/C(=C/c2cn(-c3ccccc3)nc2-c2ccccc2)SC1=S	> 30
Cc1cc(/C=C2\SC(=S)N(CCCCCC(=O)O)C2=O)c(C)n1-c1ccccc1	> 30
O=C(O)CCCCCN1C(=O)/C(=C/c2cn(-c3ccccc3)nc2-c2cccs2)SC1=S	> 30
Cc1nn(CCC#N)cc1/C=C1\SC(=S)N(CCCCCC(=O)O)C1=O	> 30
O=C(O)CCCCCN1C(=O)/C(=C/c2ccc(F)cc2)SC1=S	> 30

Now from value to molecule:

IC50 [µM]	Structure (SMILES)
> 30	COc1ccc(/C=C2\SC(=S)N(CCCCCC(=O)O)C2=O)cc1Br
> 30	Cc1cc(/C=C2\SC(=S)N(CCCCCC(=O)O)C2=O)c(C)n1-c1ccc(Br)cc1
> 30	Cc1ccc(-c2nn(-c3ccccc3)cc2/C=C2\SC(=S)N(CC(=O)O)C2=O)cc1
> 30	COc1ccccc1/C=C1\SC(=S)N(CCCCCC(=O)O)C1=O
> 30	Cc1ccc(-c2nn(-c3ccccc3)cc2/C=C2\SC(=S)N(CCCCCC(=O)O)C2=O)o1
> 30	O=C(O)CCCCCN1C(=O)/C(=C/c2cn(-c3ccccc3)nc2-c2ccccc2)SC1=S

Source: ChEMBL document CHEMBL1149294, “A novel class of inhibitors of peptide deformylase discovered through high-throughput screening and virtual ligand screening” (J Med Chem, 2004)
